From US20080233561A1, “Method for Measuring Cytopathic Effect Due to Viral Infection in Cells Using Electric Cell-Substrate Impedance Sensing” (UNIVERSITY OF LOUISVILLE RESEARCH FOUNDATION, INC., priority 2005, published 2008)

System: PR8 influenza A virus (influenza/A/PR/8/34 virus)
Assay type: cell-based
Conditions: MDCK cells pretreated 1 hour with 20 mM NH4Cl and kept under NH4Cl; […]; approximately 48 hours PI; 4,000 Hz; listed as ammonium chloride (NH4Cl)

Cl.N [NH4Cl, ammonium chloride]
signal resistance (ECIS) of the cell monolayer following influenza inoculation: the reduction in signal resistance due to influenza infection is abolished
